# Reference: US6841533B1, “Conformationally constrained backbone cyclized interleukin-6 antagonists” (Peptor Limited, priority 1995, dated 2005)
# Numbered stars: 1 amine (or outer) side, 2 acyl side, 3 side chain; on linkers, the order of the positions; unused ones are H or OH. Bridge positions count the residues as written; N and C are the ends. Square brackets hold non-standard residues; d marks the D form. Ends that are not written are not given here. Peptide text beside a SMILES is read from it. TrpN2 = Trp building unit for backbone cyclization, bridging arm N2; Ala(Nα-(CH2)3CO) = C[C@@H](C(=O)[*:2])N(CCCC(=O)[*:3])[*:1]; Ala(Nα-(CH2)3NH) = C[C@@H](C(=O)[*:2])N(CCCN[*:3])[*:1]; Phe(4-NO2) = N[C@@H](Cc1ccc([N+](=O)[O-])cc1)C(=O)O; 4Pal = N[C@@H](Cc1ccncc1)C(=O)O; LysC3 = not defined here; Orn = NCCC[C@H](N)C(=O)O
# Legend:
# [1] = tested on: TF1 cells maintained with IL-6; experiment: Bioassay using TF1 cells maintained with IL-6; type: cell-based, human; parameters: TF1: unit not given here; settings: for TF1: MPS crude peptides, Table 6; for Inhibition of IL-6 activity (%), Experiment 24, WST, IL-6 / Inhibition of IL-6 activity (%), Experiment 24, 3H-T, IL-6: cells with IL-6; for Inhibition of IL-6 activity (%), Experiment 24, 3H-T, IL-6: Experiment 24, thymidine incorporation; for specificity of inhibition, IL-6 versus GM-CSF maintained TF1 cells: in words, Table 7 and FIG. 4
# Source text: TF1 cells (human erythroleukemia) cells require IL-6 for growth and thus inhibition of IL-6 bioactivity results in cell death, similar to T1165 cells. The origin of all relevant molecules is human.
# (§1) The problem associated with toxicity (false positive results), could be overcome in the TF1 based assay since these cells can be induced by additional cytokines which are unrelated to IL-6 (not using the gp130 signal transducer). It, is possible to induce the cells to grow with IL-6 and with additional cytokine e.g. GM-CSF. Specific inhibition of IL-6 bioactivity is therefore expected to register only in cells induced by IL-6 and not with GM-CSF. […] Assay procedure is based on the procedure described in Fourcin et al. (ibid). The amount of viable cells at the end of the assay is determined by staining the cells with WST reagent as well as by measuring thymidine corporation (^3H-T).
# The libraries were screened for binding of soluble IL-6. The information obtained was used for synthesis of backbone cyclic peptides in MPS format. Analyses for biological activity were performed on the TF1 human cell line.
# (§2) Since the endpoint of the bioassay used is cell death, there is a need to check the specificity of the killing action, and to examine whether the cell death is due to inhibition of the IL-6 signaling pathway. The peptide analogs were therefore analyzed for their ability to induce non-specific cell death when the same cells were maintained with GM-CSF (instead of IL-6) as growth factor.
# [2] = tested on: B16.F10.9 melanoma cells; settings: for B16F10.9 active at: theoretical crude concentration, MPS peptides
# Source text: The F10.9 sub-line of B16 (murine melanoma) expresses gp130 but not IL-6R. Addition of human IL-6 and human IL-6R, or a chimera of IL-6/IL-6R results in differentiation which is associated with growth arrest of the cells. Inhibition of IL-6 results in continued growth. Since the end point of this assay is cell growth rather than cell death, this assay system was used primarily in order to differentiate between suspected toxic effects observed on B9 or T1165 cells, and true inhibition of IL-6 activity.
# Evaluation of the results in this assay is possible using two methods. One method uses vital dyes for monitoring cell growth. The second method comprises visual observation of the cell morphology and establishing a cut off point based on the following observations:
# Cells which are not treated with IL-6 create a monolayer that covers almost all the surface area. Treatment with IL-6 causes growth arrest and a morphological change: the cells become very narrow and elongated as compared to the more spread out shape of the non-treated cells.
# Peptides were added to B16.F10.9 melanoma cells in the presence of 200 ng/ml IL-6 and 125 ng/ml sIL-6R. Incubation for three days.
# [3] = tested on: TF1 cells maintained with GM-CSF; experiment: Selectivity bioassay using TF1 cells maintained with GM-CSF; type: cell-based, human; settings: for Inhibition (%), Experiment 24, 3H-T, GM-CSF: Experiment 24, thymidine incorporation
# Source text: as §1, §2
Compound,TF1 [1],B16F10.9 active at [2],IC50 in the B16F10.9 cell assay [2],"Inhibition of IL-6 activity (%), Experiment 23, WST, a [1]","Inhibition of IL-6 activity (%), Experiment 23, WST, b [1]","Inhibition of IL-6 activity (%), Experiment 24, WST, IL-6 [1]","Inhibition of IL-6 activity (%), Experiment 24, 3H-T, IL-6 [1]","Inhibition (%), Experiment 24, WST, GM-CSF [3]","Inhibition (%), Experiment 24, 3H-T, GM-CSF [3]","specificity of inhibition, IL-6 versus GM-CSF maintained TF1 cells [1]","concentration that fully blocks IL-6 activity ([2]; 200 ng/ml IL-6 and 125 ng/ml sIL-6R, three days, FIG. 2)"
CC(C)C[C@@H]1NC(=O)[C@H](C)N(C(=O)[C@@H](Cc2ccccc2)NC(=O)[C@@H](CCCNC(=N)N)NC(=O)[C@H](CCCCN)NC(=O)[C@H](CCCNC(=N)N)NC(=O)[C@H](N)CCCCN)CCCC(=O)NCCCN([C@@H](C)C(N)=O)C(=O)[C@H](Cc2ccc(O)cc2)NC(=O)[C@H](CCCNC(=N)N)NC1=O [(D)Lys-Arg-Lys-(D)Arg-(D)Phe-AlaC3-Leu-Arg-Tyr-AlaN3] (H-[dK]RK[dR][dF][Ala(Nα-(CH2)3CO)]LRY[Ala(Nα-(CH2)3NH)]-NH2; lactam 6-10),13,62 µM,,,,,,,,,
C[C@@H](C(N)=O)N1CCCNC(=O)CCCN(C(=O)[C@@H](Cc2ccccc2)NC(=O)[C@@H](CCCNC(=N)N)NC(=O)[C@H](CCCCN)NC(=O)[C@H](CCCNC(=N)N)NC(=O)[C@H](N)CCCCN)[C@@H](C)C(=O)N[C@@H](CCCCN)C(=O)N[C@@H](CCCNC(=N)N)C(=O)N[C@@H](Cc2ccc(O)cc2)C1=O [(D)Lys-Arg-Lys-(D)Arg-(D)Phe-AlaC3-Lys-Arg-Tyr-AlaN3] (H-[dK]RK[dR][dF][Ala(Nα-(CH2)3CO)]KRY[Ala(Nα-(CH2)3NH)]-NH2; lactam 6-10),17,62 µM,,,,,,,,,
CC(C)C[C@H]1NC(=O)[C@H](C)N(C(=O)[C@H](Cc2ccccc2)NC(=O)[C@@H](CCCNC(=N)N)NC(=O)[C@H](CCCCN)NC(=O)[C@H](CCCNC(=N)N)NC(=O)[C@H](N)CCCCN)CCCC(=O)NCCCN([C@@H](C)C(N)=O)C(=O)[C@H](Cc2ccc(O)cc2)NC(=O)[C@H](CCCNC(=N)N)NC1=O [(D)Lys-Arg-Lys-(D)Arg-Phe-AlaC3-(D)Leu-Arg-Tyr-AlaN3] (H-[dK]RK[dR]F[Ala(Nα-(CH2)3CO)][dL]RY[Ala(Nα-(CH2)3NH)]-NH2; lactam 6-10),3,62 µM,,,,,,,,,
CC(C)C[C@@H]1NC(=O)[C@H](C)N(C(=O)[C@@H](Cc2ccccc2)NC(=O)[C@H](CCCNC(=N)N)NC(=O)[C@H](CCCCN)NC(=O)[C@H](CCCNC(=N)N)NC(=O)[C@H](N)CCCCN)CCCC(=O)NCCCN([C@@H](C)C(N)=O)C(=O)[C@@H](Cc2ccc(O)cc2)NC(=O)[C@H](CCCNC(=N)N)NC1=O [(D)Lys-Arg-Lys-Arg-(D)Phe-AlaC3-Leu-Arg-(D)Tyr-AlaN3] (H-[dK]RKR[dF][Ala(Nα-(CH2)3CO)]LR[dY][Ala(Nα-(CH2)3NH)]-NH2; lactam 6-10),23,62 µM,,,,,,,,,
C[C@@H](C(N)=O)N1CCCNC(=O)CCCN(C(=O)[C@@H](Cc2ccccc2)NC(=O)[C@H](CCCNC(=N)N)NC(=O)[C@H](CCCCN)NC(=O)[C@H](CCCNC(=N)N)NC(=O)[C@H](N)CCCCN)[C@@H](C)C(=O)N[C@@H](CCCCN)C(=O)N[C@H](CCCNC(=N)N)C(=O)N[C@H](Cc2ccc(O)cc2)C1=O [(D)Lys-Arg-Lys-Arg-(D)Phe-AlaC3-Lys-(D)Arg-(D)Tyr-AlaN3] (H-[dK]RKR[dF][Ala(Nα-(CH2)3CO)]K[dR][dY][Ala(Nα-(CH2)3NH)]-NH2; lactam 6-10),17,62 µM,,,,,,,,,
"CC(C)C[C@H](NC(=O)[C@H](CCCNC(=N)N)NC(=O)[C@@H](N)Cc1ccc(O)cc1)C(=O)N[C@@H](CCCNC(=N)N)C(=O)N[C@@H](Cc1ccccc1)C(=O)N1CCCC(=O)NCCCN([C@@H](C)C(=O)N[C@@H](C)C(=O)N[C@@H](CCC(=O)O)C(N)=O)C(=O)[C@H](Cc2ccc(O)cc2)NC(=O)[C@H](CCCNC(=N)N)NC(=O)[C@H](CC(C)C)NC(=O)[C@@H]1C [PTR 5037, Tyr-Arg-Leu-Arg-Phe-AlaC3-Leu-Arg-Tyr-AlaN3-Ala-Glu] (H-YRLRF[Ala(Nα-(CH2)3CO)]LRY[Ala(Nα-(CH2)3NH)]AE-NH2; lactam 6-10; N-terminus and C-terminus assumed)",,,around 20 μg/ml,,,,,,,,
(D)Bip-(D)LysC2-Lys-Lys(ZCl)-(D)TrpN2-Abu-NH2 [Peptide 88],,,,96%,98%,112%,114%,103%,115%,,
(D)Bip-(D)LysC3-4PyrAla-Orn-TrpN2-(p-NO2)Phe-NH2 [Peptide 41],,,,96%,100%,95%,101%,25%,−13%,clearly specific to the IL-6 pathway,
(D)Bip-(D)LysC3-Orn-Lys-AsnN2-Arg-NH2 [Peptide 20],,,,37%,56%,49%,78%,−59%,−42%,,
(D)Bip-GlyC2-Dab-(D)Glu-(D)AlaN3-Abu-NH2 [Peptide 91],,,,98%,106%,123%,113%,45%,75%,,
(D)PheC2-(D)Bip-Arg-Lys-(D)TrpN2-Gln-NH2 [Peptide 81],,,,38%,46%,92%,93%,43%,27%,,
(D)PheC2-(D)Cit-Dpr-HomArg-(D)GlnN2-(D)Gln-NH2 [Peptide 17],,,,50%,44%,67%,80%,−23%,−30%,,
Dab-TrpC2-Dpr-Arg(MTR)-(D)AlaN3-Glu-NH2 [Peptide 83],,,,2%,4%,31%,51%,−5%,12%,,
Gln-GlyC2-(D)Dab-Arg(MTR)-TrpN2-Trp-NH2 [Peptide 61],,,,54%,58%,86%,58%,4%,−49%,,
Lys(ZCL)-AlaC2-Dab-(D)Glu-(D)AlaN3-(D)Trp-NH2 [Peptide 25],,,,54%,54%,77%,104%,−49%,26%,,
Lys(ZCL)-GlyC2-Dab-(D)Glu-(D)AlaN3-(D)Trp-NH2 [Peptide 57],,,,122%,114%,121%,114%,48%,102%,,
Lys-TrpC2-(D)Arg-Lys-TrpN3-Gln-NH2 [Peptide 34],,,,97%,108%,96%,106%,−27%,3%,clearly specific to the IL-6 pathway,
"LysC3-Lys-4PyrAla-Orn-TrpN2-(p-NO2)Phe-NH2 ([LysC3]K[4Pal][Orn][TrpN2][Phe(4-NO2)]-NH2; bridge 1-5; reading uncertain; also: backbone cyclization, places not given here, printed as LysC3-Lys-4PyrAla-Orn-TrpN2-(p-NO2)Phe-NH2) [Peptide 40]",,,,42%,72%,43%,61%,−45%,−63%,,
LysC4-Lys-(D)Arg-Lys-TrpN3-Gln-NH2 [Peptide 33],,,,116%,119%,112%,113%,39%,70%,,
Trp-Arg-Lys-(D)Arg-Phe-AlaC3-Leu-Arg-Tyr-AlaN3-NH2 [PTR 5049],,,,,,,,,,,not active
